Key:
Assay in all cases: relative viability (nuclei count vs DMSO), 5 days (fraction); higher = more cells survive
[1] = test system: NCI-H1666
In short: (§1)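 Lung cancer cell lines were seeded in 1536-well plates and dosed by pin tool the next day, with either a single drug or a fixed anchor-drug dose combined with five library-drug doses (not always all listed) spaced in √10 steps. Five days later, one step fixed the cells and stained their nuclei (final 0.05% Triton X-100, 1% formaldehyde, 1 ug/ml Hoechst), and nuclei were counted on 4× images. Relative viability is the nuclei count in treated wells divided by the count in vehicle wells, and each value is the median of duplicate plates.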

[2] = test system: NCI-H23
In short: as §1

[3] = test system: LOU-NH91
In short: as §1

[4] = test system: EPLC-272H
In short: as §1

[5] = test system: NCI-H1563
In short: as §1

[6] = test system: NCI-H2085
In short: as §1

[7] = test system: NCI-H1975
In short: as §1

[8] = test system: NCI-H322M
In short: as §1

[9] = test system: LU99A
In short: as §1

[10] = test system: HCC-78
In short: as §1

[11] = test system: NCI-H2405; settings: first compound 0.005 µM
In short: as §1

Work on `CC1(C)CCC(c2ccc(Cl)cc2)=C(CN2CCN(c3ccc(C(=O)NS(=O)(=O)c4ccc(N[C@H](CCN5CCOCC5)CSc5ccccc5)c(S(=O)(=O)C(F)(F)F)c4)cc3)CC2)C1` [Navitoclax] + CS(=O)(=O)CCNCc1ccc(-c2ccc3ncnc(Nc4ccc(OCc5cccc(F)c5)c(Cl)c4)c3c2)o1 [Lapatinib] (partner 2 µM) yielded a relative viability ([1]; first compound 0.005 µM) of 0.584, a relative viability ([1]; first compound 0.01581 µM) of 0.694 and a relative viability ([1]; first compound 0.05 µM) of 0.524. The relative viability ([1]; first compound 0.1581 µM) was 0.579, the relative viability ([1]; first compound 0.5 µM) was 0.425 and the relative viability ([2]; first compound 0.005 µM) was 1.05. The relative viability ([2]; first compound 0.01581 µM) was 1.05, the relative viability ([2]; first compound 0.05 µM) was 1.11 and the relative viability ([2]; first compound 0.1581 µM) was 1.05. It also gave a relative viability ([2]; first compound 0.5 µM) of 1.09, a relative viability ([3]; first compound 0.005 µM) of 0.802 and a relative viability ([3]; first compound 0.01581 µM) of 0.858. It also gave a relative viability ([3]; first compound 0.05 µM) of 0.756, a relative viability ([3]; first compound 0.1581 µM) of 0.681 and a relative viability ([3]; first compound 0.5 µM) of 0.549. For the same molecule, the relative viability ([4]; first compound 0.005 µM) was 0.904, the relative viability ([4]; first compound 0.1581 µM) was 0.906 and the relative viability ([4]; first compound 0.5 µM) was 0.881. The relative viability ([5]; first compound 0.005 µM) was 1.08, the relative viability ([5]; first compound 0.01581 µM) was 1.23 and the relative viability ([5]; first compound 0.05 µM) was 0.877. For the same molecule, the relative viability ([5]; first compound 0.1581 µM) was 1.05, the relative viability ([5]; first compound 0.5 µM) was 1.44 and the relative viability ([6]; first compound 0.005 µM) was 0.754. It also gave a relative viability ([6]; first compound 0.01581 µM) of 0.895, a relative viability ([6]; first compound 0.05 µM) of 0.692 and a relative viability ([6]; first compound 0.1581 µM) of 0.822. It also gave a relative viability ([6]; first compound 0.5 µM) of 0.814, a relative viability ([7]; first compound 0.005 µM) of 0.859 and a relative viability ([7]; first compound 0.01581 µM) of 1.02. For the same molecule, the relative viability ([7]; first compound 0.05 µM) was 1.23, the relative viability ([7]; first compound 0.1581 µM) was 0.8 and the relative viability ([7]; first compound 0.5 µM) was 0.893. For the same molecule, the relative viability ([8]; first compound 0.005 µM) was 0.672, the relative viability ([8]; first compound 0.01581 µM) was 0.603 and the relative viability ([8]; first compound 0.05 µM) was 0.625. For the same molecule, the relative viability ([8]; first compound 0.1581 µM) was 0.535, the relative viability ([8]; first compound 0.5 µM) was 0.576 and the relative viability ([9]; first compound 0.005 µM) was 0.985. For the same molecule, the relative viability ([9]; first compound 0.01581 µM) was 1.19, the relative viability ([9]; first compound 0.05 µM) was 0.977 and the relative viability ([9]; first compound 0.1581 µM) was 1.04. It also gave a relative viability ([9]; first compound 0.5 µM) of 1.07, a relative viability ([10]; first compound 0.005 µM) of 0.704 and a relative viability ([10]; first compound 0.01581 µM) of 0.987. For the same molecule, the relative viability ([10]; first compound 0.1581 µM) was 0.75, the relative viability ([10]; first compound 0.5 µM) was 0.76 and the relative viability [11] was 1.03.
